Data as given in patent publication US7820665B2, “Imidazopyridazine inhibitors of PI3 kinase for cancer treatment” (Amgen Inc., priority 2007, dated 2010).

How the values were obtained:
PI3Kα = biological target: T1, PI3Kα (Homo sapiens, UniProt P42336); test: In vitro PI3 kinase enzyme assay (PI3K ATPLoss); type: biochemical; conditions: recombinant p110α/p85, residual ATP by bioluminescence
T1 construct: Full length p110 subunits of PI3K α, β and δ, N-terminally labeled with polyHis tag; polyHis (N); made in house; host or cells: Sf9 insect cells (baculovirus)
Description: Full length p110 subunits of PI3K α, β and δ, N-terminally labeled with polyHis tag, can be co-expressed with p85 with Baculo virus expression vectors in sf9 insect cells. P110/p85 heterodimers can be purified by sequential Ni-NTA, Q-HP, Superdex-100 chromatography. Purified α, β and δ isozymes can be stored at −20° C. in 20 mM Tris, pH 8, 0.2M NaCl, 50% glycerol, 5 mM DTT, 2 mM Na cholate. Truncated PI3Kγ, residues 114-1102, N-terminally labeled with polyHis tag, can be expressed with Baculo virus in Hi5 insect cells. The γ isozyme can be purified by sequential Ni-NTA, Superdex-200, Q-HP chromatography. The γ isozyme can be stored frozen at −80° C. in NaH2PO4, pH 8, 0.2M NaCl, 1% ethylene glycol, 2 mM β-mercaptoethanol.
PI3K enzyme assays (alpha, beta, delta and gamma) can be performed in 25 μL with the above final concentrations of components in white polyproplyene plates. Phosphatidyl inositol phosphoacceptor, PtdIns(4,5)P2 (e.g. P4508) can be obtained from Echelon Biosciences, Salt Lake City, Utah. The ATPase activity of the alpha and gamma isozymes may not be greatly stimulated by PtdIns(4,5)P2 under these conditions, it can be omitted from the assay of these isozymes. Test compounds can be dissolved in DMSO and diluted with three-fold serial dilutions. The compound in DMSO (1 μL) may be added per test well, and the inhibition relative to reactions containing no compound, with and without enzyme can be determined. After assay incubation at RT, the reaction can be stopped and residual ATP can be determined by addition of an equal volume of a commercial ATP bioluminescence kit (Perkin Elmer EasyLite, Perkin Elmer, Waltham, Mass.) according to the manufacturer's instructions, and detected using an Analyst GT luminometer.

[1] = system: phosphorylation of Akt at Serine 473 in U87 MG cells; test: pAkt AlphaScreen (U87 Cell); type: cell-based; conditions: Homo sapiens, U-87 MG, 2 h, 2 h compound, pAkt Ser473 AlphaScreen
Description: The pAkt AlphaScreen® assay (PerkinElmer, Waltham, Mass.) determines whether there is phosphorylation of Akt at Serine 473 by recruitment of a phosphospecific antibody. This assay was performed using U87 MG cells. The U87 growth media consists of MEM (Gibco, Carlsbad, Calif.) supplemented with 10% FBS (Gibco), 1× Non-Essential Amino Acids (Gibco) and 1× Penicillin/Streptomycin/Glutamine (Gibco). The cells were maintained weekly using 0.05% Trypsin (Gibco) and replated in 150 mm TC-Treated Culture Dishes (Corning, Corning, N.Y.).
The first day of the assay, the adherent cells were trypsinized, media was added to the loose cells and cells were mixed to a homogenous mixture. 0.5 ml of the homogenous mixture was counted on the Beckman Coulter® Vi-CELL™ XR (Fullerton, Calif.). 50 frames of cells were counted and the number of viable cells was determined. The cells were then diluted to 0.25 million cells per ml, and centrifuged at 200 rcf for 5 minutes. The media was removed and the cells were reconstituted in fresh media for plating. The cells were plated at 20 μl per well on the PerkinElmer® Flexprop PLUS in Low Volume 384 Well White Tissue Culture Plates (Corning) with a final cell density of 5K cells per well. The plates were incubated overnight at 37° Celsius, 5% CO2.
On the second day, the compound plates were prepared, the cells were treated with compound and the pAkt reaction mix was added to the cell lysate. 384 well compound plates were prepared containing 1 μl of compound per well starting at 5 mM and diluted 1:2 across the row, resulting in a 22 well serial dilution. 39 μl of growth media was added to the compound plate in rows 1-22 using the PerkinElmer® FlexDrop PLUS resulting in a DMSO concentration of 2.5%. The cell plates and diluted compound plates were put onto the VELOCITY11™ VPREP™ 384 ST where the compound plate was mixed and 5 μl of serially diluted compound or controls was added to the cell plate. The final concentration of the compounds was 25 μM serially diluted to 11.9 pM in 0.5% DMSO. The cell plates were then incubated with compound for two hours at 37° Celsius, 5% CO2. After two hours, the media in the cell plates was aspirated using the BioTek® ELx405HT plate washer (Winooski, Vt.) removing the majority of media and compound without disturbing the adherent U87 cells. The following assay reagents are components of the SureFire® Akt (Ser 473) Phosphorylation 50K Point Kit (TGR BioSciences, Adelaide, Australia) and an IgG Detection Kit (PerkinElmer, Waltham, Mass.). 5 μl of 1× Lysis Buffer was added to each well using the PerkinElmer® FlexDrop PLUS. The plates were then incubated at room temperature on a shaker for ten minutes. The AlphaScreen® reaction was prepared under low light conditions (subdued or green light) including p-Akt (Ser 473) Reaction Buffer, Dilution Buffer, Activation Buffer, Acceptor Beads and Donor Beads at a ratio of 40:20:10:1:1 respectively. The AlphaScreen® reaction was added to the cell lysate at 6 μl per well using the PerkinElmer® FlexDrop PLUS. The plates were placed in a humid environment to reduce edge effects and incubated overnight at room temperature with restricted air flow in the dark.
On the final day of the experiment, the plates were read on the PerkinElmer® EnVision™ 2103 Multilable Reader using the standard AlphaScreen® readout. The POC is calculated and the data is analyzed to report the IC50 IP for pAkt at Serine 473.

T1 sequence (P42336 whole entry, species assumed): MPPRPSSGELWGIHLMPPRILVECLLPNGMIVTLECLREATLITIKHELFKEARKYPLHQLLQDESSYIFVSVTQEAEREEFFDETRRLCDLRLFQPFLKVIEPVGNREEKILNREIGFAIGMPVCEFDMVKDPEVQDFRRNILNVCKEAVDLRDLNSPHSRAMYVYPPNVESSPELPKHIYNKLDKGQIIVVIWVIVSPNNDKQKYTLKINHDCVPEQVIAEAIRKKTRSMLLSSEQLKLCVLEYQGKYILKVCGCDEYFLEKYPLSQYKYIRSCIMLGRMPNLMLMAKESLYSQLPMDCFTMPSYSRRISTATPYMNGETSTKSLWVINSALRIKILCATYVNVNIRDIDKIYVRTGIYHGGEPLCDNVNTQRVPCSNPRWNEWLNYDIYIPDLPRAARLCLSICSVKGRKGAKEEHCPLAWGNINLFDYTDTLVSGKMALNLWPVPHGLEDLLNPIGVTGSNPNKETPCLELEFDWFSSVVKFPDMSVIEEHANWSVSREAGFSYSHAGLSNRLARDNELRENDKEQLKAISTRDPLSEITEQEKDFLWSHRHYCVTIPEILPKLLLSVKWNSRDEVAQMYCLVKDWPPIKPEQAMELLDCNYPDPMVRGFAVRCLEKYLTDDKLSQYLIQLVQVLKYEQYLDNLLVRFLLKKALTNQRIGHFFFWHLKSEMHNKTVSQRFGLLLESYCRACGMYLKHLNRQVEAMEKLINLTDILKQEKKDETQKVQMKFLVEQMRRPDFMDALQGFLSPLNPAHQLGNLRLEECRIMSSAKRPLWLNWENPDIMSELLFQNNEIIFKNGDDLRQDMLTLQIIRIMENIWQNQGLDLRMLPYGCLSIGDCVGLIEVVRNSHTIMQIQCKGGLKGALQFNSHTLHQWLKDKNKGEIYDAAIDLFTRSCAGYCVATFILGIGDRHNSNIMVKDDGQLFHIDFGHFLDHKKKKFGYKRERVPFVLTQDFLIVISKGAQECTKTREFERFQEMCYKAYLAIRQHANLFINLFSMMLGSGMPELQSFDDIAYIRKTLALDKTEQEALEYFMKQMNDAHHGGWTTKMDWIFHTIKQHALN
T1 sequence (P27986 whole entry partner, species assumed): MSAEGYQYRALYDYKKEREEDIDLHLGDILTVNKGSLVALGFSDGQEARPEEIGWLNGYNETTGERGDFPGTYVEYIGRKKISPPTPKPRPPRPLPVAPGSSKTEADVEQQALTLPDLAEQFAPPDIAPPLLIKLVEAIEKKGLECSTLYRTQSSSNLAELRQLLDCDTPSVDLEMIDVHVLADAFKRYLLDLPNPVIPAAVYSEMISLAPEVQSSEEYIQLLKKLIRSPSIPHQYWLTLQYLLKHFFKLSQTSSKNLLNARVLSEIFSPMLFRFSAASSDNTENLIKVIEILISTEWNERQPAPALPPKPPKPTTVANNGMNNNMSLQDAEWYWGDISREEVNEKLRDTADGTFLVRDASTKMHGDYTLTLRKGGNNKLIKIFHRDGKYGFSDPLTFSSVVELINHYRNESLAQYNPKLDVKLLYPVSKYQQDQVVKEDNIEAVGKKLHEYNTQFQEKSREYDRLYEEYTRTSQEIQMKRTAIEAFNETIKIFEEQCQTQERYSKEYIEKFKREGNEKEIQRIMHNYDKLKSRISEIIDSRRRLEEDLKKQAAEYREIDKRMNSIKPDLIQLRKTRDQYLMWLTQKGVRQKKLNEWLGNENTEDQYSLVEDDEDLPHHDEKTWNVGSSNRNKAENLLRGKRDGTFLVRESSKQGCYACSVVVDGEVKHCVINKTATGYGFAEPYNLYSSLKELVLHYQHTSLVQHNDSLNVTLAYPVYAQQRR

| Structure (SMILES) | IC50 (PI3Kα) [nM] | IC50 [1] [nM] |
| --- | --- | --- |
| CC(=O)Nc1cn2cc(-c3cncc(N)c3)ccc2n1 [Example 14, N-(6-(5-Aminopyridin-3-yl)H-imidazo[1,2-a]pyridin-2-yl)acetamide] | 214 | – |
| CC(=O)Nc1cn2cc(-c3cncc(NCCC(C)(C)C)c3)ccc2n1 [Example 18, N-(6-(5-(3,3-Dimethylbutylamino)pyridin-3-yl)H-imidazo[1,2-a]pyridin-2-yl)acetamide] | 211 | – |
| CC(=O)Nc1nc2ccc(-c3cnc(Cl)c(NS(C)(=O)=O)c3)nn2c1I [Example 21, N-(6-(6-Chloro-5-(methylsulfonamido)pyridin-3-yl)-3-iodoimidazo[1,2-b]pyridazin-2-yl)acetamide] | 33 | 2180 |
| CC(=O)Nc1nc2ccc(-c3cnc(Cl)c(NS(C)(=O)=O)c3)nn2c1-c1ccncc1 [Example 26, N-(6-(6-Chloro-5-(methylsulfonamido)pyridin-3-yl)-3-(pyridin-4-yl)imidazo[1,2-b]pyridazin-2-yl)acetamide] | 9 | 6530 |
| CS(=O)(=O)Nc1cc(-c2ccc3nc(N)c(-c4ccncc4)n3n2)cnc1Cl [Example 27, N-(5-(2-Amino-3-(pyridin-4-yl)imidazo[1,2-b]pyridazin-6-yl)-2-chloropyridin-3-yl)methanesulfonamide] | 154 | 3500 |
| CC(=O)Nc1cn2nc(-c3cccc(N)c3)ccc2n1 [Example 5, N-(6-(3-Aminophenyl)imidazo[1,2-b]pyridazin-2-yl)acetamide] | 982 | – |
| CC(=O)Nc1nc2ccc(-c3cnc(Cl)c(NS(C)(=O)=O)c3)nn2c1-c1ccc(F)c(C(=O)N2CCOCC2)c1 [Example 24, N-(6-(6-chloro-5-(methylsulfonamido)pyridin-3-yl)-3-(4-fluoro-3-(morpholine-4-carbonyl)phenyl)imidazo[1,2-b]pyridazin-2-yl)acetamide] | 93 | ≥ 25000 |
| CS(=O)(=O)Nc1cc(-c2ccc3nc(N)c(-c4cccc(F)c4)n3n2)cnc1Cl [Example 23, N-(5-(2-Amino-3-(3-fluorophenyl)imidazo[1,2-b]pyridazin-6-yl)-2-chloropyridin-3-yl)methanesulfonamide] | 102 | 55 |
| Nc1cn2cc(-c3cnc(Cl)c(NS(=O)(=O)c4ccc(F)cc4)c3)ccc2n1 [Example 29, N-(5-(2-Aminoimidazo[1,2-a]pyridin-6-yl)-2-chloropyridin-3-yl)-4-fluorobenzenesulfonamide] | 64 | – |
| CC(=O)Nc1cn2nc(-c3cccc(NS(=O)(=O)c4cccc5cnccc45)c3)ccc2n1 [Example 6, N-(6-(3-(Isoquinoline-5-sulfonamido)phenyl)imidazo[1,2-b]pyridazin-2-yl)acetamide] | 96 | – |
| CC(=O)Nc1cn2nc(-c3ccnc(F)c3)ccc2n1 [Example 3, N-(6-(2-Fluoropyridin-4-yl)imidazo[1,2-b]pyridazin-2-yl)acetamide] | 782 | – |

Now from value to molecule:

| IC50 (PI3Kα) [nM] | IC50 [1] [nM] | Structure (SMILES) |
| --- | --- | --- |
| 6 | 5 | CC(=O)Nc1cn2nc(-c3cnc(Cl)c(NS(=O)(=O)c4ccc(C)cc4)c3)ccc2n1 [Example 42, N-(6-(6-Chloro-5-(4-methylphenylsulfonamido)pyridin-3-yl)imidazo[1,2-b]pyriadazin-2-yl)acetamide] |
| 691 | 523 | CC(=O)Nc1cn2nc(-c3cc(NS(=O)(=O)c4ccc(F)cc4)c(Cl)nn3)ccc2n1 [Example 52, N-(6-(6-Chloro-5-(4-fluorophenylsulfonamido)pyridazin-3-yl)imidazo[1,2-b]pyridazin-2-yl)acetamide] |
| – | 7480 | CC(=O)Nc1nc2ccc(-c3cnc(Cl)c(NS(=O)(=O)c4cccc(OC(F)F)c4)c3)nn2c1-c1ccncc1 [Example 44, N-(6-(6-Chloro-5-(3-(difluoromethoxy)phenylsulfonamido)pyridin-3-yl)-3-(pyridin-4-yl)imidazo[1,2-b]pyridazin-2-yl)acetamide] |
| – | 3900 | CC(=O)Nc1nc2ccc(-c3cnc(Cl)c(NS(=O)(=O)c4cccc(OC(F)F)c4)c3)nn2c1-c1cccnc1 [Example 49, N-(6-(6-Chloro-5-(3-(difluoromethoxy)phenylsulfonamido)pyridin-3-yl)-3-(pyridin-3-yl)imidazo[1,2-b]pyridazin-2-yl)acetamide] |
| – | 5790 | CC(=O)Nc1nc2ccc(-c3cnc(Cl)c(NS(=O)(=O)c4cccc(OC(F)F)c4)c3)nn2c1-c1ccnc(C)c1 [Example 46, N-(6-(6-Chloro-5-(3-(difluoromethoxy)phenylsulfonamido)pyridin-3-yl)-3-(2-methylpyridin-4-yl)imidazo[1,2-b]pyridazin-2-yl)acetamide] |
| 1860 | – | CC(=O)Nc1cn2cc(-c3ccnc(Cl)n3)ccc2n1 [Example 53, N-(6-(2-Chloropyrimidin-4-yl)H-imidazo[1,2-a]pyridin-2-yl)acetamide] |
| – | 27 | Nc1nc2ccc(-c3cnc(Cl)c(NS(=O)(=O)c4cccc(OC(F)F)c4)c3)nn2c1-c1ccncc1 [Example 45, N-(5-(2-Amino-3-(pyridin-4-yl)imidazo[1,2-b]pyridazin-6-yl)-2-chloropyridin-3-yl)-3-(difluoromethoxy)benzenesulfonamide] |
| – | 439 | Nc1nc2ccc(-c3cnc(Cl)c(NS(=O)(=O)c4cccc(OC(F)F)c4)c3)nn2c1C1=CCNCC1 [Example 51, N-(5-(2-Amino-3-(1,2,3,6-tetrahydropyridin-4-yl)imidazo[1,2-b]pyridazin-6-yl)-2-chloropyridin-3-yl)-3-(difluoromethoxy)benzenesulfonamide] |
| – | 18 | CC(=O)Nc1nc2ccc(-c3cnc(Cl)c(NS(=O)(=O)c4ccc(F)cc4)c3)nn2c1-c1ccncc1 [Example 48, N-(6-(6-Chloro-5-(4-fluorophenylsulfonamido)pyridin-3-yl)-3-(pyridin-4-yl)imidazo[1,2-b]pyridazin-2-yl)acetamide] |
| – | 118 | Nc1nc2ccc(-c3cnc(Cl)c(NS(=O)(=O)c4cccc(OC(F)F)c4)c3)nn2c1-c1cccnc1 [Example 50, N-(5-(2-Amino-3-(pyridin-3-yl)imidazo[1,2-b]pyridazin-6-yl)-2-chloropyridin-3-yl)-3-(difluoromethoxy)benzenesulfonamide] |
| – | 14 | Cc1cc(-c2c(N)nc3ccc(-c4cnc(Cl)c(NS(=O)(=O)c5cccc(OC(F)F)c5)c4)nn23)ccn1 [Example 47, N-(5-(2-Amino-3-(2-methylpyridin-4-yl)imidazo[1,2-b]pyridazin-6-yl)-2-chloropyridin-3-yl)-3-(difluoromethoxy)benzenesulfonamide] |
